Test results taken from PMC9781916, “Antipsychotic- and Anxiolytic-like Properties of a Multimodal Compound JJGW08 in Rodents” (International Journal of Molecular Sciences, 2022).

Legend:
human D2 receptor = target: T1, human D2 receptor (Homo sapiens, UniProt P14416); assay: Functional assay (aequorin, calcium mobilization) in CHO-K1 cells, D2 receptor; assay type: cell-based; set-up: Emax: dose or concentration left out as unconfirmed; settings: CHO-K1, read-out: Antagonist Mode Emax%
T1 construct: host or cells: CHO-K1
Experimental: (§3) Tested and reference compounds were dissolved in dimethyl sulfoxide (DMSO) at a concentration of 10 mM. Serial dilutions were prepared in a 96-well microplate in assay buffer, and 8 to 10 concentrations were tested. […] The assay was executed according to the previously described protocol [45]. After thawing, cells were transferred to assay buffer (DMEM/HAM’s F12 with 0.1% protease-free BSA) and centrifuged. The cell pellet was resuspended in assay buffer, and coelenterazine h was added at final concentrations of 5 µM. The cell suspension was incubated at 16 °C (or 21 °C), protected from light with constant agitation for 16 h (or 4 h), and then diluted with assay buffer to the concentration of 100,000 cells/mL (or 250,000 cells/mL). After 1 h of incubation, 50 µL of the cell’s suspension was dispensed using automatic injectors built into the radiometric and luminescence plate counter MicroBeta2 LumiJET (PerkinElmer, Waltham, NA, USA) into white opaque 96-well microplates preloaded with test compounds. Immediate light emission generated following calcium mobilization was recorded for 30 s. In antagonist mode, after 25–30 min of incubation, the reference agonist was added to the above assay mix, and light emission was re-recorded. […] IC50 and EC50 values were calculated.

[1] = target: T2, human serotonin 5-HT1A receptor (Homo sapiens, UniProt P08908); assay: Functional assay (aequorin, calcium mobilization) in CHO-K1 cells, 5-HT1A receptor; assay type: cell-based; settings: CHO-K1, agonist mode
T2 construct: host or cells: CHO-K1
T2 sequence (P08908 1-422): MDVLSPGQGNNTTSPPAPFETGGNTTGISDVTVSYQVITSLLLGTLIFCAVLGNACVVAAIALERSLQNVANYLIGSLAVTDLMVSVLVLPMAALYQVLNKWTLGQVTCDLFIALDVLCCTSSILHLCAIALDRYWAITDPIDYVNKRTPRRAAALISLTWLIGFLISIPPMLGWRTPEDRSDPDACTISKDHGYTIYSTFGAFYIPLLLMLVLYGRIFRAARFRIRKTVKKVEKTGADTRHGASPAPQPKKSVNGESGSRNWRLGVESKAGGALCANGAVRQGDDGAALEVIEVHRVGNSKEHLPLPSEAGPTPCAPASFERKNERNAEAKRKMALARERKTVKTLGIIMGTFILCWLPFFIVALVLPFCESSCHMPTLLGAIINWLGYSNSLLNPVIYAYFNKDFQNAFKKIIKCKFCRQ
Experimental: as §3

mice [2] = assay: MK-801-induced hyperlocomotion test in mice; assay type: in vivo; settings: MK-801 0.2 mg/kg ip
Experimental: (§1) Locomotor activity was recorded in actometers separately for each mouse. After 30 min of adaptation, the number of crossings of photo beams was measured during 60 min. […] MK-801 (0.2 mg/kg, ip) was administered 15 min before the experiment, while amphetamine (2.5 mg/kg) was administered subcutaneously (sc) 30 min before the experiment. […] Values are expressed as means ± SD, n = 8–10 mice per group. Statistical analysis: one-way ANOVA (Newman–Keuls post hoc), * p < 0.05, ** p < 0.01, *** p < 0.001.
(§2) The test was performed according to the method described by Carlsson et al.. The mobility of the animals was measured in actometers, i.e., in plastic Opto M3 cages (22 × 12 × 13 cm) connected to a computer with MultiDevice Software v.1.30 (Columbus Instruments, Columbus, OH, USA). The experimental cages were equipped with infrared sources on one side and sensors receiving the emitted rays on the other side of the cage. The crossing of each beam of infrared rays was classified as motor activity. The animals were placed individually in experimental cages immediately after administration of the tested compound, 30 min before the start of the test, to adapt to the new conditions and exclude the occurrence of hyperactivity caused by the change of the environment. Spontaneous locomotor activity was measured every 5 min for 60 min. Mice received two injections: of the tested compound or reference substance (30 min before the test, ip) and of amphetamine (2.5 mg/kg, 30 min before the test, sc) or MK-801 (0.2 mg/kg, 15 min before the test, ip). Control groups received an injection of saline and amphetamine or MK-801, or two injections of saline, respectively. Olanzapine was used as a reference compound.

mice [3] = assay: Amphetamine-induced hyperlocomotion test in mice; assay type: in vivo; settings: amphetamine 2.5 mg/kg sc
Experimental: as §1, §2

[4] = set-up: method as in earlier work; settings: ref 43 (Bubeníková et al.); cited from earlier work
mice [5] = assay: Marble burying test in mice; assay type: in vivo
Experimental: Figure 3 The effect of JJGW08 and aripiprazole on the number of buried marbles by mice. Mice were placed individually in cages with a 5 cm bedding layer, where 20 glass balls were placed. The number of buried marbles after 30 min of the test was counted. JJGW08 was administered intraperitoneally (ip) 30 min before the test. The control group received 0.9% NaCl solution (ip) or 1% Tween (ip) for aripiprazole. Values are expressed as means ± SD in the case of one-way ANOVA (aripiprazole) or median with interquartile range in the case of Kruskal–Wallis test (JJGW08), n = 8–10 mice per group. Statistical analysis: one-way ANOVA (Newman–Keuls post hoc), and Kruskal–Wallis test (Dunn post hoc), * p < 0.05, ** p < 0.01, *** p < 0.001.
The test was conducted according to the method described by Broekkamp et al. with minor modifications. Mice were placed individually in plastic cages, identical to their home cages, that contained a layer of bedding and 20 glass balls (1.6 cm in diameter) arranged in a pattern 4 × 5. After 30 min of the experiment, the mice were removed from the cages, and the number of balls buried to at least 2/3 of their size was counted.

rats = assay: Open field test after MK-801 administration in rats (MK-801-induced hyperlocomotion); assay type: in vivo; settings: MK-801 0.3 mg/kg ip
Experimental: Figure 4 The effect of JJGW08 and clozapine on MK-801-induced hyperlocomotion in rats. After the habituation period (30 min, 24 h before the test), locomotor activity was measured individually for each animal in the special apparatus. The walked distance (cm) was monitored at 10-min intervals for 30 min, using a computerized system that tracked the animals’ movement and behavior. JJGW08 and clozapine were administered intraperitoneally (ip) 30 or 60 min before the test, respectively, while MK-801 (0.3 mg/kg) was administered ip 15 min before the start of the experiment. The control group received 0.9% NaCl solution (ip) (or 1% Tween (ip) for clozapine) and MK-801 (0.3 mg/kg, ip). Values are expressed as mean ± SD, n = 7–8 rats per group. Statistical analysis: one-way ANOVA (Newman–Keuls post hoc) * p < 0.05, ** p < 0.01, *** p < 0.001.
The experiment was evaluated according to the method described earlier. It was performed in a soundproof chamber with a 30-min habituation period 24 h before the procedure. The open field apparatus consisted of four black, octagonal, stainless steel arenas (diameter: 80 cm) with 30 cm high walls. Each arena was divided into a peripheral and central sector. The peripheral sector was defined as the region within 20 cm from the walls. The approximate light intensity was 15 lx in the central point of the arena and 4 lx close to its walls.
Individual rats were placed in the central part of the open field and allowed to explore the whole arena for 30 min under dim light (approximately 10 lx) and continuous white noise (65 dB). Forward locomotion (cm/30 min) was registered in 10-min intervals for 30 min and analyzed with the aid of a computerized video tracking system (Videomot, TSE, Bad Homburg, Germany). The arenas were cleaned between tests with 20% (v/v) alcohol and allowed to dry.
The tested compound was administered ip 30 min before the experiment at the dose range of 0.3–30.0 mg/kg, and MK-801 (0.3 mg/kg,) was administered ip 15 min before the procedure. […]

[6] = target: T3, human serotonin 5-HT2A receptor (Homo sapiens, UniProt P28223); assay type: cell-based; settings: 5-HT2A
T3 construct: host or cells: CHO-K1
T3 sequence (P28223 whole entry): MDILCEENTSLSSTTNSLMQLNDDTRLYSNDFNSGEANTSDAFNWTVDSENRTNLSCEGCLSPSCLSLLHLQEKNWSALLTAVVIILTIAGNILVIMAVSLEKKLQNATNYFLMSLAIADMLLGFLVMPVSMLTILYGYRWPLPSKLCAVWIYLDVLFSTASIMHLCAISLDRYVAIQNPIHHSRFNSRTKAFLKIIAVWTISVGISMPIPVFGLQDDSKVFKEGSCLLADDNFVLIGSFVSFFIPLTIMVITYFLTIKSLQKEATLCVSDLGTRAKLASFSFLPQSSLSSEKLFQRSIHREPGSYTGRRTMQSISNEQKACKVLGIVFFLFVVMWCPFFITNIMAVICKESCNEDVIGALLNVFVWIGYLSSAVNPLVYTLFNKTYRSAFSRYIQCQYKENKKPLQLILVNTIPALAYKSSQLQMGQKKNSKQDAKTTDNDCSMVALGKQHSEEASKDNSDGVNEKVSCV
Experimental: as §3

T1 sequence (P14416 whole entry): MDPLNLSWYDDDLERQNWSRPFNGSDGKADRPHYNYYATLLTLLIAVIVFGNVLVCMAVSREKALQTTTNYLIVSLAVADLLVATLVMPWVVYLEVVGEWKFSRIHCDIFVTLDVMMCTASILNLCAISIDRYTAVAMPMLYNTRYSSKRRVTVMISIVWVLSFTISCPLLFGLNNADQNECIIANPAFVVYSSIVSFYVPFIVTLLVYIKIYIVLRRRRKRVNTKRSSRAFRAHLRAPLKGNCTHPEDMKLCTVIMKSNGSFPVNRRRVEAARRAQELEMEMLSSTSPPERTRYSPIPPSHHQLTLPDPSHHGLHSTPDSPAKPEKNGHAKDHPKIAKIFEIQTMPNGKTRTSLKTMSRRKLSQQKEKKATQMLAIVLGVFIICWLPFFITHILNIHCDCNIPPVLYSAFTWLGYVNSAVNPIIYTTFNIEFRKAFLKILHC

CN1CCc2cccc3c2[C@H]1Cc1ccc(O)c(O)c1-3 [Apomorphine, reference compound]
Emax (human D2 receptor): 0%

COc1ccccc1N1CCN(CCCCN2C(=O)c3ccccc3C2=O)CC1 [NAN-190, reference compound]
Emax [1]: 6%

Cc1cc2c(s1)Nc1ccccc1N=C2N1CCN(C)CC1 [Olanzapine]
reduction of MK-801-induced hyperlocomotion (mice [2]; 0.03 mg/kg ip): 63% | reduction of MK-801-induced hyperlocomotion (mice [2]; 0.3 mg/kg ip): 82% | reduction of amphetamine-induced hyperlocomotion (mice [3]; 0.03 mg/kg ip): 54% | reduction of amphetamine-induced hyperlocomotion (mice [3]; 0.3 mg/kg ip): 75% | effect on MK-801-induced deficits in the prepulse inhibition test (in words) [4]: restored

O=C1CCc2ccc(OCCCCN3CCN(c4cccc(Cl)c4Cl)CC3)cc2N1 [aripiprazole]
reduction of the number of buried marbles (mice [5]; 1.25 mg/kg ip): 61% | reduction of the number of buried marbles (mice [5]; 2.5 mg/kg ip): 69% | reduction of the number of buried marbles (mice [5]; 5.0 mg/kg ip): 93%

CN1CCN(C2=Nc3cc(Cl)ccc3Nc3ccccc32)CC1 [clozapine]
reduction of MK-801-induced hyperlocomotion in the open field (rats; 10 mg/kg ip): 53% | reduction of MK-801-induced hyperlocomotion in the open field (rats; 30 mg/kg ip): 98% | effect on MK-801-induced deficits in the prepulse inhibition test (in words) [4]: restored

Cc1nc2n(c(=O)c1CCN1CCC(c3noc4cc(F)ccc34)CC1)CCCC2 [risperidone]
effect on MK-801-induced deficits in the prepulse inhibition test (in words) [4]: ineffective

CC(N)Cc1c[nH]c2ccc(O)cc12 (stereo not drawn) [α-methylserotonin, reference compound]
Agonist Mode Emax% ([6]; agonist mode): 100% | Agonist Mode pEC50 ± Range ([6]; agonist mode): 8.5 ± 0.3 | Antagonist Mode Emax% ([6]; antagonist mode, 30 nM α-methylserotonin as reference agonist): 2%
